Positions of bridges follow the written chain, without caps; N, C: chain ends. Non-standard residues stand in square brackets, D forms with d. Residues, ends and D or L forms follow the SMILES beside them. *: point of attachment. Ileψ(thiazoline)Cys = CC[C@H](C)[C@H](N)C1=N[C@H](C(=O)*)CS1; dOrn = NCCC[C@@H](N)C(=O)O
Target: T1, B. subtilis RNAP (Bacillus subtilis, UniProt P37870+P37871)
T1 construct: endogenous in cells; host or cells: Bacillus subtilis strain PL37 (built from strain 168)
Experiment: Dual reporter assay in strain PL37: test reporter Pxyl-lacZ and ratio of control to test reporter (RES:MUG)
Format: cell-based
Details: strain PL37, DMSO control […]
Description: 20 known antibiotics were tested at a range of concentrations to determine their effect on test and control reporters within the assay. […] Cultures of PL37 grown in PAB, were diluted to 0.05 A600 and then grown for 2 hours at 37° C. in PAB supplemented with 0.02 mM IPTG. Cells were pelleted and frozen. They were later resuspended and diluted in PAB supplemented with 0.02 mM IPTG and grown at 37° C. to early exponential phase. Cultures were then diluted to 0.05 A600 in PAB and added in 20 μl volumes to wells of microtitre plates containing 20 μl volumes of the antibiotics. Plates were incubated at 37° C. for two hours, and assay mix was added to detect reporter enzyme activity (see below).
Following the addition of 160 μl of assay mix (1.3×Z buffer containing 94 μg/ml lysozyme, 8.4 μg/ml 4-methylumbelliferyl-β-D-galactoside, 0.53 μg/ml resorufin-β-D-glucuronide and 0.05% Triton) to each well, the microtitre plate was incubated in the dark for 30 mini or 1 hour at room temperature. Fluorescence was read on a BMG FLUOstar Galaxy at excitation/emission 355/460 nm and 544/590 nm, respectively, with gains set at 5 and 25, respectively.

[1] = Dilution Number 1 (highest concentration tested: 128, 16 or 0.5 μg/ml depending on antibiotic)
[2] = Dilution Number 11 (lowest concentration tested: 0.125, 0.016 or 0.0005 μg/ml depending on antibiotic)

T1 sequence (P37871 whole entry): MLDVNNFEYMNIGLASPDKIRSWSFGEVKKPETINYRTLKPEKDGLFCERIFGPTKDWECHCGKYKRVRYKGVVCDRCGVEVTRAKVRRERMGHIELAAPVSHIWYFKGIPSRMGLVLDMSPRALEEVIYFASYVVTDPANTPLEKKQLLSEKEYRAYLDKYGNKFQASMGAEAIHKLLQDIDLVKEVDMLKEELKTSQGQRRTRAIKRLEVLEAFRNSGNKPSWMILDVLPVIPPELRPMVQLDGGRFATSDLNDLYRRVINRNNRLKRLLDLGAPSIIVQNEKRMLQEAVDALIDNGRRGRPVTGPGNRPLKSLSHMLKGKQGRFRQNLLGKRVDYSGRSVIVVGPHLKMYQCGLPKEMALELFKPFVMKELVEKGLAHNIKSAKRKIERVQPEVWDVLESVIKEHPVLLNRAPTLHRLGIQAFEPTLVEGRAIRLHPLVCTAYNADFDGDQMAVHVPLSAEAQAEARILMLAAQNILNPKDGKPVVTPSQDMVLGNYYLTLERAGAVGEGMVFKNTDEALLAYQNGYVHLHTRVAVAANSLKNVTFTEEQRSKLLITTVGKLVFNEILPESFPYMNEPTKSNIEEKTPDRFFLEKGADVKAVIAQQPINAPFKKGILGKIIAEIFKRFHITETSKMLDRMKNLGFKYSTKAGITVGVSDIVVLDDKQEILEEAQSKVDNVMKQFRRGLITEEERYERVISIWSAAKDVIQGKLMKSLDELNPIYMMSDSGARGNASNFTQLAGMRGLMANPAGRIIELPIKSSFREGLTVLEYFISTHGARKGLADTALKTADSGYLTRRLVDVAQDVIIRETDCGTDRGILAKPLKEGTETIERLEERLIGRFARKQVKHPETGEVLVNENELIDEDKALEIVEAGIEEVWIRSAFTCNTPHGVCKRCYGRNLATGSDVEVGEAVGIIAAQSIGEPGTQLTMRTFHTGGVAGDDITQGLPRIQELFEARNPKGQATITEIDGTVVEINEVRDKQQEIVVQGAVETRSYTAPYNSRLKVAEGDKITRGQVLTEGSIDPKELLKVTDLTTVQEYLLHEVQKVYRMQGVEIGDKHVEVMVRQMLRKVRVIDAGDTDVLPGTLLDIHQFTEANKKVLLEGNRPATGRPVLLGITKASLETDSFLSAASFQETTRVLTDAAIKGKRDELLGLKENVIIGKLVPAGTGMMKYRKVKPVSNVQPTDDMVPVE
T1 sequence (P20429 whole entry, further chain): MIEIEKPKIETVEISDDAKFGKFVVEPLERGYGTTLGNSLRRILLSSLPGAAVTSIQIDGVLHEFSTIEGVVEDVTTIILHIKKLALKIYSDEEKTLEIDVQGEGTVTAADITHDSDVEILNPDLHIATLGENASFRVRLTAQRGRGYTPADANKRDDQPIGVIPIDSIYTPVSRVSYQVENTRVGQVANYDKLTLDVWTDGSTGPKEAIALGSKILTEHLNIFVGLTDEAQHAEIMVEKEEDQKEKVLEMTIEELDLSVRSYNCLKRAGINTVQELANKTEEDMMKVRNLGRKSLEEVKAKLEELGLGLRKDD
T1 sequence (O35011 whole entry, further chain): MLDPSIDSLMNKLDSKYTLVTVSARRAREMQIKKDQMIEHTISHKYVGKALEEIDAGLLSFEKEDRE
T1 sequence (P37870 whole entry): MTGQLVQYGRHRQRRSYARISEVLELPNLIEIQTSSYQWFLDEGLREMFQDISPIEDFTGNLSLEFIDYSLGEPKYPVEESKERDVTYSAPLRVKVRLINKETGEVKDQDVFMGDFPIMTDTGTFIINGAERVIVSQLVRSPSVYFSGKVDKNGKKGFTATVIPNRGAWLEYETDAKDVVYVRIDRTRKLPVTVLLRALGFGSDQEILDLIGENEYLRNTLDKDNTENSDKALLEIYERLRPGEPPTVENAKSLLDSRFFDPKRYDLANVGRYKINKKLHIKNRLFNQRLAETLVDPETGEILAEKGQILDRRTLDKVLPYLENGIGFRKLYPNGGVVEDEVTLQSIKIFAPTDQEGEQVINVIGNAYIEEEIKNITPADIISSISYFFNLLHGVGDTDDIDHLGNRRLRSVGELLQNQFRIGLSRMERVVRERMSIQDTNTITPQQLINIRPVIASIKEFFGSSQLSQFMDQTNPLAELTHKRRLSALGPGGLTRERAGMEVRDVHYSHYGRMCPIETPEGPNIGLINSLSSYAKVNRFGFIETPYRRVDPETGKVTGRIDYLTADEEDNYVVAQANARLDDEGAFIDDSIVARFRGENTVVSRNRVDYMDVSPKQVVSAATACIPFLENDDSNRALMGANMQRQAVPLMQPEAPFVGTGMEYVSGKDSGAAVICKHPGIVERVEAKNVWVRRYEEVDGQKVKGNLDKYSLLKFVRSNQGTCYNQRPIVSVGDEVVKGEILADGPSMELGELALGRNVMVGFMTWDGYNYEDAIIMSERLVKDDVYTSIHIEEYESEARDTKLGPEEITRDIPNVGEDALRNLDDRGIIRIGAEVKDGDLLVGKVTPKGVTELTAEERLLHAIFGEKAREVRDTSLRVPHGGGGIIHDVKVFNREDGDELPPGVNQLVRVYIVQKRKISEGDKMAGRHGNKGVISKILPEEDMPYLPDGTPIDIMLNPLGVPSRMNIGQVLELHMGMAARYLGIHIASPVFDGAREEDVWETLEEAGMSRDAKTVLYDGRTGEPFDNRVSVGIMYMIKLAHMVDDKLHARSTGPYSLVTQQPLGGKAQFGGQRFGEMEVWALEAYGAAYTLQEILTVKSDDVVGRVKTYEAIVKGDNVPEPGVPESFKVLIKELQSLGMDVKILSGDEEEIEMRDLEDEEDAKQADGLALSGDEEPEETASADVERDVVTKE

Molecule | Ratio of the control reporter (RES): test reporter (MUG) [1] | Ratio of the control reporter (RES): test reporter (MUG) (Dilution Number 2) | Ratio of the control reporter (RES): test reporter (MUG) (Dilution Number 3) | Ratio of the control reporter (RES): test reporter (MUG) (Dilution Number 4) | Ratio of the control reporter (RES): test reporter (MUG) (Dilution Number 5) | Ratio of the control reporter (RES): test reporter (MUG) (Dilution Number 6) | Ratio of the control reporter (RES): test reporter (MUG) (Dilution Number 7) | Ratio of the control reporter (RES): test reporter (MUG) (Dilution Number 8) | Ratio of the control reporter (RES): test reporter (MUG) (Dilution Number 9) | Ratio of the control reporter (RES): test reporter (MUG) (Dilution Number 10) | Ratio of the control reporter (RES): test reporter (MUG) [2]
O=C(N[C@H](CO)[C@H](O)c1ccc([N+](=O)[O-])cc1)C(Cl)Cl [Chloramphenicol] | 1.10 | 1.22 | 1.27 | 1.40 | 1.90 | 1.51 | 1.20 | 1.16 | 1.14 | 1.13 | 1.17
CCn1cc(C(=O)O)c(=O)c2cc3c(cc21)OCO3 [Oxolinic Acid] | 0.89 | 1.33 | 1.63 | 1.77 | 2.02 | 1.86 | 0.96 | 1.06 | 1.05 | 1.14 | 1.17
CC1(C)S[C@@H]2[C@H](NC(=O)[C@H](N)c3ccccc3)C(=O)N2[C@H]1C(=O)O [Ampicillin] |  |  |  |  |  |  |  |  | 1.16 | 1.02 | 1.06
CO[C@@H]1[C@@H](OC(N)=O)[C@@H](O)[C@H](Oc2ccc3c(O)c(NC(=O)c4ccc(O)c(CC=C(C)C)c4)c(=O)oc3c2C)OC1(C)C [Novobiocin] | 1.33 | 1.70 | 1.66 | 1.49 | 1.24 | 0.81 | 0.85 | 1.05 | 1.14 | 1.18 | 1.19
CC1=C(C(=O)O)N2C(=O)[C@@H](NC(=O)[C@H](N)c3ccccc3)[C@H]2SC1 [Cephalexin] | 1.73 | 1.78 | 1.76 | 1.62 | 1.68 | 1.81 |  |  |  |  | 
CC[C@@]1([C@@H]2O[C@@H]([C@H]3O[C@@](O)(CO)[C@H](C)C[C@@H]3C)C[C@@H]2C)CC[C@H]([C@]2(C)CC[C@]3(C[C@H](O)[C@@H](C)[C@@H]([C@@H](C)[C@@H](OC)[C@H](C)C(=O)O)O3)O2)O1 [Monensin] | 1.74 | 1.42 | 1.45 | 1.79 | 2.06 | 2.00 | 1.88 | 1.74 | 1.54 | 1.37 | 1.33
CCn1cc(C(=O)O)c(=O)c2ccc(C)nc21 [Nalidixic Acid] | 1.50 | 1.76 | 1.74 | 0.87 | 0.68 | 0.91 | 1.18 | 1.25 | 1.26 | 1.26 | 1.22
CC1(C)S[C@@H]2[C@H](NC(=O)Cc3ccccc3)C(=O)N2[C@H]1C(=O)O [Penicillin G] | 1.77 | 1.72 | 1.70 | 1.76 | 1.81 | 1.80 | 1.84 | 1.64 | 1.01 | 1.01 | 1.07
CC[C@H](C)[C@H](N)C1=N[C@H](C(=O)N[C@@H](CC(C)C)C(=O)N[C@H](CCC(=O)O)C(=O)N[C@H](C(=O)N[C@H]2CCCCNC(=O)[C@H](CC(N)=O)NC(=O)[C@@H](CC(=O)O)NC(=O)[C@H](Cc3cnc[nH]3)NC(=O)[C@@H](Cc3ccccc3)NC(=O)[C@H]([C@@H](C)CC)NC(=O)[C@@H](CCCN)NC2=O)[C@@H](C)CC)CS1 [Bacitracin] ({Ileψ(thiazoline)Cys}-L[dE]IK[dOrn]I[dF]H[dD]N; lactam 4-C) | 1.32 | 1.15 | 1.12 | 1.11 | 1.14 | 1.13 | 1.09 | 1.09 | 1.09 | 1.12 | 1.13
Polymyxin | 1.19 | 1.22 | 1.21 | 1.23 | 1.44 | 1.24 | 1.20 | 1.15 | 1.16 | 1.16 | 1.17
CC(O)C(=O)O.COc1cc(Cc2cnc(N)nc2N)cc(OC)c1OC [Trimethoprim Lactate] | 0.62 | 0.55 | 0.54 | 0.52 | 0.54 | 0.58 | 0.68 | 0.65 | 0.63 | 0.81 | 1.00
